Source: PubChem BioAssay AID1963431 (Molecular Pharmacology Branch, DTP, NCI, 2024)

System: Rh18 complex spheroid viability, percent test/control
Assay: Anticancer human tumor Rh18 cell line growth inhibition [Asc];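 also: spheroids exposed to compound for 7 days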;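 as to viability, T/C: 100% = DMSO vehicle control wells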
Settings: for IC50: curve of first compound; for viability, T/C: stronger effect = lower value
Procedure, shortened: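 Complex solid-tumor spheroids incorporating human endothelial and mesenchymal stem cells received single agents or combinations over half-log dilution ranges anchored to clinical Cmax.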

O=C(c1cc(Cc2n[nH]c(=O)c3ccccc23)ccc1F)N1CCN(C(=O)C2CC2)CC1 + CCN1C(C(=O)NC23CCC(C(=O)O)(CC2)CC3)C(c2cccc(Cl)c2F)C2(C(=O)Nc3cc(Cl)ccc32)C12CCCCC2
IC50 (second compound 0.03 µM): < 0.0316 µM
IC50 (second compound 0.0949 µM): < 0.0316 µM
IC50 (second compound 0.3 µM): < 0.0316 µM
IC50 (second compound 0.949 µM): < 0.0316 µM
IC50 (second compound 3 µM): < 0.0316 µM
viability, T/C (second compound 0.03 µM, first compound 0.0316 µM): 49.4%
viability, T/C (second compound 0.03 µM, first compound 0.1 µM): 38.6%
viability, T/C (second compound 0.03 µM, first compound 0.316 µM): 43.2%
viability, T/C (second compound 0.03 µM, first compound 1 µM): 41.7%
viability, T/C (second compound 0.03 µM, first compound 3.16 µM): 40.7%
viability, T/C (second compound 0.03 µM, first compound 10 µM): 46.3%
viability, T/C (second compound 0.0949 µM, first compound 0.0316 µM): 26.5%
viability, T/C (second compound 0.0949 µM, first compound 0.1 µM): 26.8%
viability, T/C (second compound 0.0949 µM, first compound 0.316 µM): 28.7%
viability, T/C (second compound 0.0949 µM, first compound 1 µM): 29%
viability, T/C (second compound 0.0949 µM, first compound 3.16 µM): 25.1%
viability, T/C (second compound 0.0949 µM, first compound 10 µM): 23.7%
viability, T/C (second compound 0.3 µM, first compound 0.0316 µM): 14.2%
viability, T/C (second compound 0.3 µM, first compound 0.1 µM): 13.7%
viability, T/C (second compound 0.3 µM, first compound 0.316 µM): 14.7%
viability, T/C (second compound 0.3 µM, first compound 1 µM): 12.3%
viability, T/C (second compound 0.3 µM, first compound 3.16 µM): 11.6%
viability, T/C (second compound 0.3 µM, first compound 10 µM): 12.4%
viability, T/C (second compound 0.949 µM, first compound 0.0316 µM): 10.5%
viability, T/C (second compound 0.949 µM, first compound 0.1 µM): 11.3%
viability, T/C (second compound 0.949 µM, first compound 0.316 µM): 10.7%
viability, T/C (second compound 0.949 µM, first compound 1 µM): 10.2%
viability, T/C (second compound 0.949 µM, first compound 3.16 µM): 9.53%
viability, T/C (second compound 0.949 µM, first compound 10 µM): 9.36%
viability, T/C (second compound 3 µM, first compound 0.0316 µM): 10.4%
viability, T/C (second compound 3 µM, first compound 0.1 µM): 8.17%
viability, T/C (second compound 3 µM, first compound 0.316 µM): 9.35%
viability, T/C (second compound 3 µM, first compound 1 µM): 10.7%
viability, T/C (second compound 3 µM, first compound 3.16 µM): 9%
viability, T/C (second compound 3 µM, first compound 10 µM): 8.64%

O=C(c1cc(Cc2n[nH]c(=O)c3ccccc23)ccc1F)N1CCN(C(=O)C2CC2)CC1 + CNC(C)C(=O)NC1CN(S(=O)(=O)c2cccc(S(=O)(=O)N3CCC4CCC(C(=O)NC(c5ccccc5)c5ccccc5)N4C(=O)C(NC(=O)C(C)NC)C3)c2)CCC2CCC(C(=O)NC(c3ccccc3)c3ccccc3)N2C1=O
IC50 (second compound 0.01 µM): 0.404 µM
IC50 (second compound 0.0316 µM): < 0.0316 µM
IC50 (second compound 0.1 µM): < 0.0316 µM
IC50 (second compound 0.316 µM): < 0.0316 µM
IC50 (second compound 1 µM): < 0.0316 µM
viability, T/C (second compound 0.01 µM, first compound 0.0316 µM): 60.7%
viability, T/C (second compound 0.01 µM, first compound 0.1 µM): 48.4%
viability, T/C (second compound 0.01 µM, first compound 0.316 µM): 49.6%
viability, T/C (second compound 0.01 µM, first compound 1 µM): 39.4%
viability, T/C (second compound 0.01 µM, first compound 3.16 µM): 13.2%
viability, T/C (second compound 0.01 µM, first compound 10 µM): 16.7%
viability, T/C (second compound 0.0316 µM, first compound 0.0316 µM): 45.8%
viability, T/C (second compound 0.0316 µM, first compound 0.1 µM): 49.9%
viability, T/C (second compound 0.0316 µM, first compound 0.316 µM): 46.4%
viability, T/C (second compound 0.0316 µM, first compound 1 µM): 34.5%
viability, T/C (second compound 0.0316 µM, first compound 3.16 µM): 16.7%
viability, T/C (second compound 0.0316 µM, first compound 10 µM): 18.1%
viability, T/C (second compound 0.1 µM, first compound 0.0316 µM): 42%
viability, T/C (second compound 0.1 µM, first compound 0.1 µM): 40.2%
viability, T/C (second compound 0.1 µM, first compound 0.316 µM): 26.7%
viability, T/C (second compound 0.1 µM, first compound 1 µM): 27.8%
viability, T/C (second compound 0.1 µM, first compound 3.16 µM): 11.1%
viability, T/C (second compound 0.1 µM, first compound 10 µM): 12.8%
viability, T/C (second compound 0.316 µM, first compound 0.0316 µM): 40%
viability, T/C (second compound 0.316 µM, first compound 0.1 µM): 38.9%
viability, T/C (second compound 0.316 µM, first compound 0.316 µM): 36.8%
viability, T/C (second compound 0.316 µM, first compound 1 µM): 26.6%
viability, T/C (second compound 0.316 µM, first compound 3.16 µM): 11.3%
viability, T/C (second compound 0.316 µM, first compound 10 µM): 12.2%
viability, T/C (second compound 1 µM, first compound 0.0316 µM): 32.2%
viability, T/C (second compound 1 µM, first compound 0.1 µM): 36.8%
viability, T/C (second compound 1 µM, first compound 0.316 µM): 32.5%
viability, T/C (second compound 1 µM, first compound 1 µM): 26.1%
viability, T/C (second compound 1 µM, first compound 3.16 µM): 10.8%
viability, T/C (second compound 1 µM, first compound 10 µM): 10.9%
